“Also recorded” adds a separate entry of the source.
Tests used:
[1] = tested on: CDAHFD diet-induced NASH in C57/BL6 mice; experiment: Diet-induced (CDAHFD) mouse model of non-alcoholic steatohepatitis (NASH); type: in vivo; settings: mouse liver
Text: This model uses a choline-deficient, L-amino acid-defined, high-fat diet (CDAHFD) consisting of 60 kcal % fat and 0.1% methionine to induce NASH.
C57/BL6 mice (Charles River) are divided into groups as set out below, the mice are 8 weeks (>20 grs) at the initiation of the induction phase.
• CDAHFD; Research Diets Inc., Ref. No. A06071302 • Control diet: normal diet (VRF 1, P), Special Diets Services
In order to induce a non-alcoholic steatohepatitis (NASH), animals will be fed with choline-deficient, L-amino acid-defined, high-fat diet (CDAHFD).
Mice were randomly assigned to a treatment group and treated according to schedule presented in the Table above until the evaluation phase.
Steady state PK sampling—Blood will be collected in K2-EDTA tubes to generate plasma. All blood samples will be processed for plasma by centrifugation (5,000 rpm for 10 minutes at 4° C.) within 30 minutes of collection. Plasma from each blood sample will be quickly frozen in liquid nitrogen and stored in a freezer maintained at −80° C. until analysis.
Final blood sample—Blood will be collected in tubes for serum preparation containing protease inhibitors. All blood samples will be processed by centrifugation (3,500 rpm for 15 minutes at 4° C.). Aliquots of obtained serum samples will be stored frozen at −80° C. until further analysis.
Tissue samples: The liver is harvested and portions of the left lateral lobe are stored for RNA gene expression analysis, TG assay, sectioned for OH proline measurement, and the rest placed in 10% formalin for histopathological evaluation. Histopathological evaluation includes sections stained with Sirius red to evaluate extent of fibrosis, and sections stained with F4/80 to assess macrophage accumulation.
A panel of 6 fibrosis genes (Col1A1, Timp1, Pai1, CTGF, TGFβ and Acta2), inflammation genes (TNFα, IL10 and CCL2) and 2 house keeping genes are used for gene expression analysis.

[2] = tested on: CFA induced hypersensitivity in rat; experiment: CFA induced hypersensitivity in rat assessed using weight bearing method; type: in vivo; settings: 10 mg/kg, 24 hours post CFA, 1, 2 and 4 hours post treatment
Text: Intraplantar injection of Complete Freunds adjuvant (CFA) causes an inflammatory reaction which induces hypersensitivity and oedema, and mimics some aspects of clinical inflammatory pain. These effects can be investigated using equipment to measure weight bearing and plethysmometer.
Naive rats distribute their body weight equally between the two hind paws. However, when the injected (left) hind paw is inflamed and/or painful, the weight is re-distributed so that less weight is put on the affected paw (decrease in weight bearing on injured paw). Weight bearing through each hind limb was measured using a rat incapacitance tester (Linton Instruments, UK).
Rats were placed in the incapacitance tester with the hind paws on separate sensors and the average force exerted by both hind limbs was recorded over 4 seconds.
Base line weight bearing and paw volume readings were taken and hypersensitivity was induced via injection of CFA (Baseline weight bearing and paw volume recordings were taken prior to induction of insult. Inflammatory hypersensitivity was induced by intraplantar injection of CFA (100 μL of 1 mg/mL solution) intraplantar to the rats left hind paw.
Animals (Male, Sprague Dawley Rats (Charles River, UK), 212-260 g) were ranked and randomised to treatment groups according to the weight bearing CFA window in a Latin square design. […]

[3] = tested on: MIA induced hyperalgesia in the rat; experiment: MIA induced hyperalgesia in the rat, in vivo chronic pain model (weight bearing); settings: 10 mg/kg p.o. daily day 3 to day 16, vs vehicle
Text: Intra-articular administration of Monosodium Iodoacetate (MIA) in the ipsilateral knee of Sprague Dawley rats leads to development of a robust and long-lasting hyperalgesia and allodynia associated initially with an inflammatory response.
Naive rats distribute their body weight equally between the two hind paws. However, when the injected (left) hind knee is inflamed and/or painful, the weight is re-distributed so that less weight is put on the affected limb (decrease in weight bearing on injured limb). Weight bearing through each hind limb is measured using a rat incapacitance tester (Linton Instruments, UK).
Osteoarthritis (OA) in rats ((Sprague Dawley, male, groups of 10) was induced via injection of MIA solution (Sigma, 12512), 25 μL of 80 mg/mL, (2 mg) into the knee joint of the left hind leg. Weight bearing was assessed on Days 3, 5, 7, 9, 12 & 16, following injection of MIA, for development of chronic pain. At Day 3 weight bearing measurements were taken and animals were ranked and randomised to treatment groups according to their MIA window in a Latin square design. […]
Weight bearing (g) readings were taken for both right and left hind paws and the difference calculated. Data are expressed as % ratio ipsilateral/contralateral ((WB left/WB right)*100) (mean±s.e.m.)
Calculation: Ipsilateral reading/contralateral reading x 100. […]

**Q.** Which F4/80 quantification ([1]; day 73, 15 mg/kg/BID) does the source give for Cc1c[nH]c2ncnc(N3CCC(NC(=O)c4cc(N)ncc4F)CC3)c12 [Compound 1, 2-amino-5-fluoro-N-[1-(5-methyl-7H-pyrrolo[2,3-d]pyrimidin-4-yl)-4-piperidyl]pyridine-4-carboxamide] here?
**A.** significant effect

**Q.** And the “Sirius red fibrosis quantification” value ([1]; day 73, 15 mg/kg/QD and 15 mg/kg/BID)?
**A.** significant effect

**Q.** And the “expression levels of Pai1 (fibrosis gene panel)” value ([1]; day 73, at least the highest doses tested (5 mg/kg/QD, 15 mg/kg/QD, 15 mg/kg/BID p.o.), vs CDAHFD diet+vehicle)?
**A.** significant effect

**Q.** And the “expression levels of TGF (fibrosis gene panel)” value ([1]; day 73, at least the highest doses tested, vs CDAHFD diet+vehicle)?
**A.** significant effect

**Q.** What about the “hypersensitivity response (weight bearing)” value [2] of the same compound?
**A.** significantly inhibited

**Q.** And the “reversal of hypersensitivity (weight bearing)” value [3]?
**A.** significant and marked reversal; also recorded: significant reversal when compared to vehicle at each time point
